Data reported in paper PMC9901164, “Cloning and characterization of nitrate reductase gene in kelp Saccharina japonica (Laminariales, Phaeophyta)” (BMC Plant Biology, 2023).

Assays:
rSjNR-S = target: T1, rSjNR-S (Saccharina japonica, UniProt A0A977LKQ3); assay: Griess colorimetric nitrite assay, single concentration; type: biochemical; settings: 5 mM KNO3, 0.2 mM NADH, 100 mM HEPES pH 7.6, 10 μM FAD, 10 μM sodium molybdate, 10 mM MgCl2, 5 mM DTT, 24 °C
T1 construct: E. coli BL21(DE3) pCold-SUMO-10His, Ni-NTA, SUMO tag cut off
T1 sequence (A0A977LKQ3 1-705): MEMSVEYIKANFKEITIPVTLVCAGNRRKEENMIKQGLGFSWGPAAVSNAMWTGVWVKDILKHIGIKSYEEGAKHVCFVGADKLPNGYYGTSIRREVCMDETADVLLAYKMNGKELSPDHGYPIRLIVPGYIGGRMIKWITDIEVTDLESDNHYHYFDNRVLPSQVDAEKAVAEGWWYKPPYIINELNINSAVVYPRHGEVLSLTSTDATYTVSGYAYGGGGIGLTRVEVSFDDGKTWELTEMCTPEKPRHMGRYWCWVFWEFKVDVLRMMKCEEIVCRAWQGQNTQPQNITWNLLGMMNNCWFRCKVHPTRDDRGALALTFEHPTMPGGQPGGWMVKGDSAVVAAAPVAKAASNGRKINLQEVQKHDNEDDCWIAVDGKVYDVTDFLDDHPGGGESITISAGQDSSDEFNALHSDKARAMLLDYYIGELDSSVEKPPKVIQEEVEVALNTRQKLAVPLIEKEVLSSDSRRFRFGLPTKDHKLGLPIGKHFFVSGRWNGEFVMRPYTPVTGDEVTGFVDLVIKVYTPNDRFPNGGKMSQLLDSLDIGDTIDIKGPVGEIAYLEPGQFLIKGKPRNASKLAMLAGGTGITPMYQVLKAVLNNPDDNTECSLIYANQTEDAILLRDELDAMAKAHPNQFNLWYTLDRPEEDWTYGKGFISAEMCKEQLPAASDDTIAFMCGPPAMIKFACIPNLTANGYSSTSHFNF

[1] = substrate: O=[N+]([O-])O; assay: Griess colorimetric nitrite assay, Michaelis-Menten nonlinear regression; type: biochemical, Saccharina japonica; settings: 0.2 mM NADH, 100 mM HEPES pH 7.6, 10 μM FAD, 10 μM sodium molybdate, 10 mM MgCl2, 5 mM DTT, 24 °C, KNO3 0-20 mM, apparent

Which “Griess colorimetric nitrite assay, single concentration” value (rSjNR-S; electron donor) does the source give for NC(=O)C1=CN([C@@H]2O[C@H](COP(=O)(O)OP(=O)(O)OC[C@H]3O[C@@H](n4cnc5c(N)ncnc54)[C@H](O)[C@@H]3O)[C@@H](O)[C@H]2O)C=CC1 [NADH] here?
Its value is “the activity of rSjNR-S was lower than that of rSjNR-L”.

Which “Griess colorimetric nitrite assay, single concentration” value (rSjNR-S) does the source give for O=[N+]([O-])O [KNO3] here?
The value was “both rSjNR-L and rSjNR-S showed NR activity in vitro”.

B1: rSjNR-L (Saccharina japonica) (protein)
chain: MASGIQSCKPEKADASLVNIKGHDYYKDTFVPPAEDVTEIDPRDKGTPDDWVPRHPELVRLTGRHPFNVEPPVWRIKDHGFISPNSLHYVRNHGAVPRIVQGDSHKVRFGGAIDKPMEMSVEYIKANFKEITIPVTLVCAGNRRKEENMIKQGLGFSWGPAAVSNAMWTGVWVKDILKHIGIKSYEEGAKHVCFVGADKLPNGYYGTSIRREVCMDETADVLLAYKMNGKELSPDHGYPIRLIVPGYIGGRMIKWITDIEVTDLESDNHYHYFDNRVLPSQVDAEKAVAEGWWYKPPYIINELNINSAVVYPRHGEVLSLTSTDATYTVSGYAYGGGGIGLTRVEVSFDDGKTWELTEMCTPEKPRHMGRYWCWVFWEFKVDVLRMMKCEEIVCRAWQGQNTQPQNITWNLLGMMNNCWFRCKVHPTRDDRGALALTFEHPTMPGGQPGGWMVKGDSAVVAAAPVAKAASNGRKINLQEVQKHDNEDDCWIAVDGKVYDVTDFLDDHPGGGESITISAGQDSSDEFNALHSDKARAMLLDYYIGELDSSVEKPPKVIQEEVEVALNTRQKLAVPLIEKEVLSSDSRRFRFGLPTKDHKLGLPIGKHFFVSGRWNGEFVMRPYTPVTGDEVTGFVDLVIKVYTPNDRFPNGGKMSQLLDSLDIGDTIDIKGPVGEIAYLEPGQFLIKGKPRNASKLAMLAGGTGITPMYQVLKAVLNNPDDNTECSLIYANQTEDAILLRDELDAMAKAHPNQFNLWYTLDRPEEDWTYGKGFISAEMCKEQLPAASDDTIAFMCGPPAMIKFACIPNLTANGYSSTSHFNF
notes: E. coli BL21(DE3) pCold-SUMO-10His, Ni-NTA, SUMO tag cut off
How did the Km [1] turn out when B1 was run?
The Km was 0.42 (± 0.059) mM.
